Laboratory results reported in patent US20240156971A1, “METHODS AND SORTILIN BINDING CONJUGATE COMPOUNDS FOR TARGETING CANCER STEM CELLS” (TRANSFERT PLUS, SOCIÉTÉ EN COMMANDITE, priority 2021, published 2024).
Square brackets hold non-standard residues; d marks the D form. Ends that are not written are not given here. Nle = CCCC[C@H](N)C(=O)O

Legend:
[1] = type: in vivo, mice
Text: (§1) In vivo Assessment of Docetaxel and TH1902 Anti-Tumor Efficacy. Tumor xenografts were established by subcutaneous inoculation of 10^3 hBCSC cells, hOvCSC and hPCSC resuspended in […] of HBSS containing 50% Matrigel™, into the right flank of NCG triple immunodeficient female mice (Charles River, Saint-Constant QC) under light isoflurane anesthesia. Three days following implantation of either hBCSC or hOvCSCS, mice commenced receiving weekly treatment by intravenous bolus injections of vehicle (10% polysorbate-80, 5% dextrose, 0.04% formic acid pH 4.3), docetaxel (15 mg/kg (the MTD for this agent) or 3.75 mg/kg (¼ MTD for this agent), dissolved in 5% dextrose, 3.3% ethanol, 1.7% Tween™-80) or TH1902 (35 mg/kg or 8.75 mg/kg) dissolved in vehicle. Note that the two TH1902 and docetaxel concentrations contain equimolar amounts of docetaxel due to the two docetaxel moieties per TH1902 molecule. Tumor growth was measured using two-dimensional measurements taken with an electronic caliper, and tumor volume was calculated according to the following formula: tumor volume (mm^3)=π/6×length×width^2. Animal weights were measured three times per week with a precision of 10 mg.

[2] = system: pancreatic CSCs; experiment: Growth of tumors originating from pancreatic CSCs in mice; type: in vivo; settings: TH1902 at doses equivalent to 1, 1.25 or 1.5 the MTD of docetaxel; docetaxel 15 mg/kg (MTD)
Text: as §1

[3] = system: hBCSCs; experiment: Cell cycle analysis (G2/M) of hBCSCs with or without P-gp inhibitors; type: cell-based, human
Procedure: Cell Cycle Analysis Following Treatment of hBCSC by Test Articles. hBCSCs (2.8×10^5 cells/well) and MDA-MB-231/luc cells (2.3×10^5 cells/well) were seeded in 6-well plates one day prior to treatment. To test the effects of Docetaxel and TH1902 on cell cycle phases, hBCSCs and MDA-MB-231/luc cells were treated for 2 hours in serum-free media with vehicle (DMSO), 4 μM docetaxel or 2 μM TH1902 (equimolar of docetaxel), rinsed with complete media and incubated in fresh complete media for 22 and 48 hours. For the experiments with the P-gp inhibitors, hBCSCs were first pre-treated for 30 minutes in serum-free media with vehicle (DMSO), or 10 μM cyclosporine A or PSC-833 (P-gp inhibitors). Next, cells were treated for 2 hours with 4 μM docetaxel or 2 μM TH1902 in the continued presence or absence of the P-gp inhibitors before being rinsed and incubated in fresh complete media in the continued presence or absence of the P-gp inhibitors. Cells were then incubated for 22 and 48 hours. In both assays, following the incubation, cells were detached with trypsin, fixed with ice-cold 70% EtOH and kept overnight at 4° C. Cells were washed once with PBS, after which they were stained for 30 minutes at room temperature with FxCycle™ PI/RNase Staining Solution (Thermo Scientific, Waltham, MA; #F10797). Cells were finally subjected to cell cycle analysis using a BD Accuri™ C6 flow cytometer.

[4] = system: hBCSCs; experiment: Confocal microscopy of hBCSCs (DAPI, anti-α-tubulin); type: cell-based, human; settings: 4 μM docetaxel or 2 μM TH1902, 48 hours post-treatment; for appearance of fragmented nuclei: DAPI
Procedure: Effects of Docetaxel and TH1902 on Tubulin Polymerization. hBCSCs were grown to 80% confluence on pre-coated 18 mm microscope cover slips (Celprogen, #E36102-29-CS18), rinsed with PBS and exposed to serum-free culture medium containing vehicle (DMSO), 4 μM docetaxel or 2 μM TH1902 at 37° C. Following incubation for 2 hours the cells were rinsed with complete culture medium and incubated in fresh complete medium for 48 hours. Cells were then washed with PHEM buffer (60 mM Pipes, 25 mM HEPES, 10 mM EGTA and 2 mM MgCl2, pH 6.9) and fixed for 15 minutes with 4% paraformaldehyde, then permeabilized with 1% Triton™ X-100 in PHEM buffer for 5 minutes and washed again with PHEM buffer. The cells were blocked in PBS (2.6 mM KCl, 1.4 mM KH2PO4, 136.9 mM NaCl and 6.5 mM Na2HPO4·7H2O; pH 7.2) containing 10% normal goat serum and 0.05% Triton™ and then incubated for 1 hour with 1:2000 anti-α-Tubulin primary monoclonal antibody (clone B-5-1-2, Sigma-Aldrich; #T5168) diluted in washing buffer (PBS containing 5% normal goat serum and 0.025% Triton). Cells were washed with washing buffer and incubated for 1 hour with Alexa Fluor™ 488-conjugated goat anti-mouse secondary antibody (1:1000; Invitrogen; #A-11001), washed with diluted blocking buffer, stained with DAPI ([…] in PBS, Invitrogen; #D1306) for 3 minutes, washed again in washing blocking buffer and mounted onto slides using Prolong™ Gold antifade reagent (Invitrogen, P36934). Cell images were finally digitalized by confocal microscopy (Nikon A1) and analyzed using NIH ImageJ™ Version 1.4.21 software. The excitation and emission wavelengths used for Alexa Fluor™ 488 were 488 nm and 525 nm, respectively; the excitation and emission wavelengths used for DAPI were 404 nm and 450 nm, respectively.

[5] = system: MDA-MB-231/luciferase tumor xenografts; experiment: Cancer relapse in MDA-MB-231/luciferase xenograft mouse model of TNBC; type: in vivo, mice; settings: treated at day 0, 7, 14 and 21; for cancer relapse at later time points (day 74): assessed up to day 74
Procedure: It was then assessed whether treatment with docetaxel or TH1902 could prevent cancer relapse using the MDA-MB-231/luciferase xenograft mouse model of TNBC. The MDA-MB-231 tumor cell has been reported to have cells with cancer stem cell (CSC)-like properties (Sleeboom et al., Int J Mol Sci. 2018 October; 19(10): 3047; Ghanbari et al., Int. J. Morphol., 34(4):1197-1202, 2016). Mice with MDA-MB-231/luciferase tumor xenografts were treated a day 0, 7, 14 and 21 with either vehicle (control), Docetaxel or TH1902 and tumor growth was assessed up to day 74.

Compound	effect on animals' weight ([1]; FIGS. 8C, 9C and 10C)	growth of tumors originating from pancreatic CSCs [2]	G2/M cell cycle arrest in the presence of CsA ([3]; 10 μM CsA, 4 μM docetaxel or 2 μM TH1902)	G2/M cell cycle arrest in the presence of PCC-831 ([3]; 10 μM inhibitor, 4 μM docetaxel or 2 μM TH1902)	proportion of cells in G2/M phase ([3]; no efflux inhibitor, 4 μM docetaxel or 2 μM TH1902, FIG. 6C-D)	cell morphology change versus vehicle-treated cells [4]	enlargement of cells and re-organization of the microtubules (tubulin labelling) [4]	appearance of fragmented nuclei [4]	tumor growth during and shortly after administration [5]	cancer relapse at later time points (day 74) [5]	weight loss ([1]; mouse, in vivo)
Acetyl-GVRAK(docetaxel)AGVRN(Nle)FK(docetaxel)SESY (Ac-GVRAK(docetaxel)AGVRN[Nle]FK(docetaxel)SESY) [TH1902]	no or minimal effect	significant inhibition of the growth of tumors	no effect	no effect	strong increase in the proportion of cells in G2/M phase	visible morphology change	more evident	fragmented nuclei in many of the cells	reduction in tumor growth	No residual tumor could be detected	
CC(=O)O[C@@]12CO[C@@H]1C[C@H](O)[C@@]1(C)C(=O)[C@H](O)C3=C(C)[C@@H](OC(=O)[C@H](O)[C@@H](NC(=O)OC(C)(C)C)c4ccccc4)C[C@@](O)([C@@H](OC(=O)c4ccccc4)[C@H]21)C3(C)C [docetaxel, reference compound]		no significant reduction of tumor growth				visible morphology change	present in some	not seen	reduction in tumor growth	tumor resurgence was observed	5-10%
